# Measured values published in US20220056018A1, “SREBP INHIBITORS COMPRISING A THIOPHENE CENTRAL RING” (Capulus Therapeutics, LLC, priority 2019, published 2022).
# Experiments:
# MDAMB435 = experiment: Cancer cell growth inhibition; format: cell-based; conditions: Homo sapiens, MDA-MB-435; MDAMB435 (skin), 72 hr treatment
# Procedure: (§1) The ability of select compounds to inhibit cell growth in various cancer cell lines are evaluated. […] The cell lines shown in Table 2 have reduced growth by at least 50% at 10 uM or lower over 72 hr treatment in growth media. The cell lines shown in Table 3 have reduced growth by at least 50% with an IC50 greater than 10 uM.
# (§2) Six 10-fold compound dilutions are prepared in DMSO (e.g. 10 mM, 1 mM, 100 uM, 10 uM, 1 uM, and 0.1 uM). Single data points are acquired for each concentration. The final concentration of DMSO is 0.1%. The duration of the treatment is 72 hr. Growth inhibition is measured using Sulforhodamine B in a protein staining assay. Activity of the agents is determined by evaluation the following parameters: IC50, GI50, IC10, TGI, LC50, IC90, and GI90 (where these values can be calculated).
# J82 = experiment: Cancer cell growth inhibition; format: cell-based; conditions: Homo sapiens; J82 (bladder), 72 hr treatment
# Procedure: as §1, §2
# K-562 = experiment: Cancer cell growth inhibition; format: cell-based; conditions: Homo sapiens, K562; K-562 (hematological), 72 hr treatment
# Procedure: as §1, §2
# U87MG = experiment: Cancer cell growth inhibition; format: cell-based; conditions: Homo sapiens, U-87 MG; U87MG (brain), 72 hr treatment
# Procedure: as §1, §2
# HS578T = experiment: Cancer cell growth inhibition; format: cell-based; conditions: Homo sapiens, Hs-578T; HS578T (breast), 72 hr treatment
# Procedure: as §1, §2
# PBMC = experiment: Cancer cell growth inhibition; format: cell-based; conditions: PBMC (hematological), 72 hr treatment
# Procedure: as §1, §2
# KASUMI-1 = experiment: Cancer cell growth inhibition; format: cell-based; conditions: Homo sapiens; KASUMI-1 (hematological), 72 hr treatment
# Procedure: as §1, §2
# COLO205 = experiment: Cancer cell growth inhibition; format: cell-based; conditions: Homo sapiens, COLO 205; COLO205 (colon), 72 hr treatment
# Procedure: as §1, §2
# CACO2 = experiment: Cancer cell growth inhibition; format: cell-based; conditions: Homo sapiens, Caco-2; CACO2 (colon), 72 hr treatment
# Procedure: as §1, §2
# HT29 = experiment: Cancer cell growth inhibition; format: cell-based; conditions: Homo sapiens, HT-29; HT29 (colon), 72 hr treatment
# Procedure: as §1, §2
# C33A = experiment: Cancer cell growth inhibition; format: cell-based; conditions: Homo sapiens, C-33-A; C33A (endometrial), 72 hr treatment
# Procedure: as §1, §2
# SREBP = experiment: Reporter Screening Assay (SRE-luciferase reporter, HepG2); format: cell-based; conditions: Homo sapiens; SRE-luciferase reporter HepG2 cells, 24 hours, 0.01 uM to 10 uM; read-out: I: Reporter Screening Assay (Ave EC50 (nM))
# How it was run: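 HepG2 SREBP reporter cells carrying an SRE-luciferase construct were serum-washed, then treated for 24 h at 37° C with compounds (0.01 uM to 10 uM) in phenol-free medium with varying FBS levels. Total luminescence was read after a 30 min incubation with luciferase substrate.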
# [1] = Stability in mouse liver microsomes; format: in vitro ADME
# How it was run: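 Mouse liver microsomes, run by the same procedure as for human microsomes: 100 μM working solution pre-incubated with microsomes in 100 mM potassium phosphate buffer for 10 min at 37° C, then incubated 60 min at 37° C with NADPH cofactor, plus a no-cofactor control. Remaining compound quantified by LC-MS/MS.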
SMILES,IC50 (MDAMB435) [µM],IC50 (J82) [µM],IC50 (K-562) [µM],IC50 (U87MG) [µM],IC50 (HS578T) [µM],IC50 (PBMC) [µM],IC50 (KASUMI-1) [µM],IC50 (COLO205) [µM],IC50 (CACO2) [µM],IC50 (HT29) [µM],IC50 (C33A) [µM],EC50 (SREBP) [nM],percent parent remaining after 60 min in liver microsomes [1]
"CC(C)(CO)c1cc(-c2csc(-c3ccc(NS(C)(=O)=O)cc3Cl)c2)ccn1 [Compound I-8909, N-(3-chloro-4-(4-(2-(1-hydroxy-2-methylpropan-2-yl)pyridin-4-yl)thiophen-2-yl)phenyl)methanesulfonamide]",> 10,< 10,< 10,> 10,> 10,> 10,> 10,< 10,< 10,< 10,< 10,< 249,+++ (>60.1 = +++)
"CS(=O)(=O)Nc1ccc(-c2cc(-c3ccnc4c3OCCO4)cs2)c(Cl)c1 [Compound I-9017, N-(3-chloro-4-(4-(2,3-dihydro-[1,4]dioxino[2,3-b]pyridin-8-yl)thiophen-2-yl)phenyl)methanesulfonamide]",> 10,> 10,< 10,< 10,> 10,> 10,< 10,< 10,< 10,< 10,< 10,< 249,+++ (>60.1 = +++)
"CC(C)(O)Cc1cc(-c2csc(-c3ccc(NS(C)(=O)=O)cc3Cl)c2)ccn1 [Compound I-9004, N-(3-chloro-4-(4-(2-(2-hydroxy-2-methylpropyl)pyridin-4-yl)thiophen-2-yl)phenyl)methanesulfonamide]",< 10,> 10,< 10,> 10,> 10,> 10,> 10,< 10,< 10,< 10,< 10,< 249,+++ (>60.1 = +++)
